Where a SMILES comes first, the peptide text is derived from it. [ ]: non-standard residue; d: D form. dPhe(4-Cl) = N[C@H](Cc1ccc(Cl)cc1)C(=O)O; d2Nal = N[C@H](Cc1ccc2ccccc2c1)C(=O)O; dCit = NC(=O)NCCC[C@@H](N)C(=O)O; d3Pal = N[C@H](Cc1cccnc1)C(=O)O
How the values were obtained:
P0 pups = assay: LH and T measurement in P0 mice; type: in vivo, mouse; details: prenatal GnRH antagonist administration with AMH
Protocol: FIGS. 4A-4C-2. Prenatal AMH treatment increases perinatal T levels in females and masculinizes their brain. (FIG. 4A) Plasma T and LH levels were measured in pups 2 hours after birth (males, n=5; control females, n=5; PAMH females, n=4; PAMH females+GnRH antag, n=6). (FIG. 4B) TH immunoreactive (-ir) neurons in the AVPV were quantified in these animal groups (n=3 per sex and treatment). The number of AVPV TH-ir neurons are represented as the mean±s.e.m. (One-way ANOVA and Tukey's multiple comparisons post-hoc test, F(2,6)=231.1, ***P<0.0001). In FIG. 4B: left bar: male; middle bar: control female; right bar: PAMH female. (FIGS. 4C-1, 4C-2)
For the analysis of circulating LH and T levels, animals were decapitated and trunk blood from adult (P60) animals and P0 pups (1-2 hrs after birth) were collected in sterile Eppendorf tubes and left on ice until centrifugation. Plasma was collected and stored at −80° C. until use. LH levels were determined by a sandwich ELISA, as described previously (Vidal et al., 2012, PloS one, Vol. 7: e39001), using the mouse LH-RP reference provided by A. F. Parlow (National Hormone and Pituitary Program, Torrance, CA). Plasma T levels were analyzed using a commercial ELISA (Demeditec Diagnostics, GmnH, DEV9911) (Moore et al., 2015, Proc Natl Acad Sci USA, Vol. 112: 596-601) according to the manufacturers' instructions. […]

pregnant mice = assay: LH, T, E2 and P measurement in pregnant mice at E19.5; type: in vivo, mouse
Protocol: PAMH+GnRH antag. (FIG. 3D) Schematic representation of tail-tip blood sampling in adult diestrus female mice (3-4 months old). (FIG. 3E) Tail blood was collected every 10 min for 2 h and LH measured from 10 a.m-12 p.m in adult (P60) diestrus females (Control, n=8; PAMH, n=10; PAMH+GnRH antag, n=9; One-way ANOVA and Tukey's multiple comparison post hoc test, F(2,24)=57.06, *P<0.05, ***P<0.0001). Bars from left to right: Control, PAMH, PAMH+GnRH antag. (FIGS. 2F-1, 2F-2, 2F-3) Representative graphs for LH pulsatility over 2-hr in one female adult (P60) mouse of each treatment. Asterisks in (FIG. 3F) indicate the number of LH pulses/2-hr. (FIG. 3G) Mean circulating testosterone and LH levels were analyzed in pregnant PBS-treated (n=4) and AMH-treated (n=4) dams at embryonic day (E) 19.5 of gestation. […] Values are expressed as relative to the mean of each treatment. All values are expressed as mean±s.e.m. […]
For the analysis of circulating LH and T levels, animals were decapitated and trunk blood from adult (P60) animals and P0 pups (1-2 hrs after birth) were collected in sterile Eppendorf tubes and left on ice until centrifugation. […] LH levels were determined by a sandwich ELISA, as described previously (Vidal et al., 2012, PloS one, Vol. 7: e39001), using the mouse LH-RP reference provided by A. F. Parlow (National Hormone and Pituitary Program, Torrance, CA). […]

## CC(=O)N[C@H](Cc1ccc2ccccc2c1)C(=O)N[C@H](Cc1ccc(Cl)cc1)C(=O)N[C@H](Cc1cccnc1)C(=O)N[C@@H](CO)C(=O)N[C@@H](Cc1ccc(O)cc1)C(=O)N[C@H](CCCNC(N)=O)C(=O)N[C@@H](CC(C)C)C(=O)N[C@@H](CCCNC(=N)N)C(=O)N1CCC[C@H]1C(=O)N[C@H](C)C(N)=O [Cetrorelix acetate, Ac-D-2Nal-D-Phe(4-Cl)-D-3Pal-Ser-Tyr-D-Cit-Leu-Arg-Pro-D-Ala-NH2] (Ac-[d2Nal][dPhe(4-Cl)][d3Pal]SY[dCit]LRP[dA]-NH2)
P0 pups
  neonatal T and LH surges of PAMH female pups: corrected
Pregnant mice; dams i.p. AMH + GnRH antag E16.5-E18.5
  circulating T in dams: very low T levels
Pregnant mice; dams i.p. AMH + GnRH antagonist E16.5-E18.5
  AMH-induced increase of LH in pregnant mice: prevented

— patent publication US12208130B2, “Treatment of women affected with polycystic ovary syndrome” (INSTITUT NATIONAL DE LA SANTE ET DE LA RECHERCHE MEDICALE …, priority 2017, dated 2025)
